Values after ≈ are worked out from the molar mass of the structure shown. “Also recorded” adds a separate entry of the source. Read-outs that look alike come from different tables or passages of the source.
Tests used:
pancreatin = experiment: degradation in vitro by pancreatin; assay type: in vitro ADME; details: commercial pancreatic enzyme preparation (Sigma)
Description: The compounds of the present invention are not generally hydrolyzed by pancreatic enzymes and are different from glycerol-based compounds in terms of their chemistry and metabolism. […] The resistance of PX-13 and PX-18 to metabolism by pancreatic enzymes supports their stability after oral administration.

[1] = biological target: T1, purified human disc type II, PLA2 (Homo sapiens, UniProt P14555); experiment: inhibition of purified human disc type II PLA2; assay type: biochemical
T1 construct: the purified human disc type II, PLA2; from tissue; host or cells: human vertebral (herniated) disc
T1 sequence (P14555 21-144): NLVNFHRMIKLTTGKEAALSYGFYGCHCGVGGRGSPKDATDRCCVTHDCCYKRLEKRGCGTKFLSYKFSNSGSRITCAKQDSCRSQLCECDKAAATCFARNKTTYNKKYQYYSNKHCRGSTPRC
Description: Both PX-13 and PX-18 inhibit the purified human disc type II, PLA2. PLA2 activity was measured as described in Franson et al., Prostaglandins, Leukotrienes and Essential Fatty Acids, 43:63-70, 1991, which is herein incorporated by reference in its entirety.

basophils = experiment: histamine release from basophils (anti-human IgE, diluted blood); assay type: cell-based
Description: The protocol to evaluate the effects of PX-18 on histamine release is described below. Freshly drawn heparinized blood from donors non-medicated for 3 days is diluted 1:5 with PBS containing 1% human serum albumin (diluent). Test drugs are diluted in diluent to 10 times final concentration, and 25 μl per well is added to duplicate wells of round-bottomed microtiter plates. Generally 3-fold dilutions of drug are examined four or five times. 200 μl of diluted blood is then added to each well. 5 minutes later, […] of rabbit anti-human IgE (purchased from Dako) is added per well, to give final concentrations of 1/400 and 1/1200 of antibody. Unstimulated (background release wells) have 25 μl of diluent added. Plates are gently tapped for mixing, then incubated for 30 minutes. After incubation, plates are cooled on ice, spun down in a refrigerated centrifuge, and replaced on ice. 100 μl plasma is removed from each well for assay, and placed in a 1.5 ml Eppendorf tube containing acetylation reagent. Following acetylation, the histamine adduct is quantitated by a sensitive and specific commercial competitive assay, utilizing the competition of enzyme conjugated acetyl-histamine with sample analyte for binding to a specific antibody on the solid phase. A sample of blood is also lysed by repeated freeze/thaw to determine total blood histamine. Results are expressed as a percentage of total blood histamine release. In an acceptable assay maximal release is greater than 45% and background release is less than 15%. Experiments are performed in duplicate or triplicate using separate blood donors.

[2] = test system: basal production of prostaglandins; experiment: whole blood eicosanoid release, basal; assay type: cell-based, human; details: no stimulus
Description: (§1) The following protocol was employed to evaluate effects of PX-18 on production of leukotrienes and prostaglandins by blood cells under basal conditions, with ionophore stimulation of cyclooxygenase type I, and with lipopolysaccharide (LPS) induction of cyclooxygenase type II. Freshly-obtained heparinized blood from medication-free donors is diluted 1:1 with RPMI, and aliquoted in 0.6 ml amounts in sterile polypropylene 12×75 […] tubes. Test drugs are added at appropriate concentrations and diluted in saline with 1% human serum albumin. Control tubes have only diluent or drug vehicle added. Drugs are added five minutes prior to addition of stimulus, at 100×concentrations, (6 μl volumes). This is replicated for 3 racks of tubes, A thru C. A has no stimulus added, and has a 30 minute and 6 hr. tube for each drug concentration. B has 20 uM of the calcium ionophore A23187 added, and is incubated at 37° C. for 30 minutes. C has 5 ug/ml of E. coli strain Bort LPS added, and is incubated at 37° C. for 6 hours. At the end each time period, the appropriate tubes are placed on ice, centrifuged, and 0.4 ml of plasma carefully decanted into a tube containing formic acid and BHT to stop all reactions and preserve eicosanoid products. These tubes are then frozen at −70° C. for up to one week, then applied to Sep-pac mini columns and extracted into methanol. […]

cyclooxygenase II = experiment: whole blood eicosanoid release, LPS induction; assay type: cell-based, human; details: 5 ug/ml E. coli LPS, 6 hours, 37° C.
Description: as §1

[3] = test system: lipoxygenase products such as LTC4; experiment: whole blood production of lipoxygenase products; assay type: cell-based, human; details: comparison to MK 592
Description: as §1

[4] = test system: lipoxygenase and cyclooxygenase; experiment: lipoxygenase and cyclooxygenase metabolites with exogenous arachidonic acid; assay type: cell-based; details: exogenous arachidonic acid added
Description: The comparison is to MK 592, a selective lipoxygenase inhibitor.

[5] = test system: drug-resistant P. falciparum strains; experiment: growth of the same drug-resistant P. falciparum strains (PX-18); assay type: cell-based, Plasmodium falciparum; details: for IC50: two strains as described above, which value for which strain not stated
cyclooxygenase I = experiment: whole blood eicosanoid release, ionophore stimulation; assay type: cell-based, human; details: 20 uM A23187, 30 minutes
Description: as §1

small bowel graft = experiment: small bowel transplantation ischemia-reperfusion injury; assay type: in vivo, rat
Description: (§2) These drugs were also tested for their ability to enhance the preservation of tissues stored for subsequent transplantation. The small bowel was removed from rats, washed free of luminal contents and the tissue stored in University of Wisconsin (UW) preservative media ±40 uM PX-13 or mepacrine for 48 hrs. The graft was then transplanted into rats with or without intravenous (IV) infusion of 20 mg/kg PX-13 or mepacrine at the time of transplantation.

[6] = small bowel storage in perfusate solution, tissue weight; design: species or system rat; details: 24 and 48 hours in the perfusate solution
Description: These drugs were also tested for their ability to enhance the preservation of tissues stored for subsequent transplantation. […] The graft was then transplanted into rats with or without intravenous (IV) infusion of 20 mg/kg PX-13 or mepacrine at the time of transplantation.

[7] = test system: PLA2 activity in extracts of rat bowel; experiment: PLA2 activity in extracts of rat bowel; assay type: biochemical
[8] = test system: larval forms of an animal filarid; experiment: molting of larval forms of a filarid
Description: Infections caused by parasites constitute a major public health problem throughout the world for humans and animals, annually resulting in significant incidence of disease, suffering and death. Parasites such as those that cause malaria and other protozoal parasites of animals and humans are especially troublesome.

human blood cells = experiment: preservation of whole blood (LDH and hemoglobin release); assay type: cell-based; details: 20 uM
Description: The effect of PX-13 and mepacrine on whole blood cell viability were tested as a function of time of storage.
Heparinized human blood was centrifuged at 400×g and the resulting plasma was removed and replaced with an equal volume of Dulbecco's medium. The resuspended cells were then incubated at 37° C. for 0-72 hrs. in a shaking water bath. At the indicated times, a 0.8 ml aliquot was removed and centrifuged at 400×g to sediment cells. Appearance of lactate dehydrogenase (LDH) and hemoglobin in the supernate was indicative of cell injury. PX-13 and mepacrine stabilized cells and decreased the injury as evidenced by diminished levels of LDH and hemoglobin in the supernate. This is expressed as percent protection.

[9] = peroxidation (malondialdehyde formation) of homogenized rat bowel
Description: as §2, with “of transplantation. Upon transplantation, the bowel is immediately injured as evidenced by tissue darkening within two minutes. […] Both PX-13 and mepacrine inhibit the peroxidation (malondialdehyde formation) of homogenized rat bowel, an indication that the membrane-stabilizing, PLA2-inhibitors, also have anti-oxidant activity.” for “of transplantation.”

SMILES: CCCCCCCC/C=C\CCCCCCCC(=O)OCCN(CCOC(=O)CCCCCCC/C=C\CCCCCCCC)CCS(=O)(=O)O [PX-18, 2-[N,N-Bis(2-oleoyloxyethyl)amino]-1-ethanesulfonic acid]
- degradation in vitro by pancreatin (pancreatin): resistant to degradation
- IC50 [1]: 300 nM
- efficacy relative to cromolyn (basophils): more efficacious than cromolyn
- potency relative to epinephrine (basophils): equipotent to epinephrine
- degranulation of basophils (basophils; stimulus antibody to surface-bound IgE): inhibits
- inhibition of basal production of prostaglandins [2]: even less or no inhibition
- inhibition of cytokine-inducible cyclooxygenase II (cyclooxygenase II): strongly inhibit
- production of lipoxygenase products such as LTC4 [3]: inhibited
- production of lipoxygenase and cyclooxygenase metabolites [4]: does not inhibit
- effectiveness relative to PX-13 [5]: 10 times
- IC50 ([5]; Plasmodium falciparum, read-out: IC50): 1.3 µg/mL (≈ 1.75 µM)
- IC50 [5]: 2.4 µg/mL (≈ 3.23 µM)
- inhibition of constitutive cyclooxygenase I (cyclooxygenase I): less inhibition

SMILES: CCN(CC)CCCC(C)Nc1c2ccc(Cl)cc2nc2ccc(OC)cc12 (centres unmarked) [mepacrine, reference compound]
- gross and microscopic injury to tissue (small bowel graft; 40 uM in UW media 48 hrs, with or without 20 mg/kg IV at transplantation): dramatically reduced
- protection against ischemia and reperfusion injury (small bowel graft; small bowel transplantation): protect; also recorded: some protection although not as great as with PX-13
- weight of the tissues after storage [6]: reduced weight
- inhibition of PLA2 activity [7]: inhibited
- molting of larval forms [8]: significantly reduced
- Percent Protection Hemoglobin (human blood cells; 48 hr): 61%
- Percent Protection LDH (human blood cells; 48 hr, 37° C.): 58%
- Percent Protection Hemoglobin (human blood cells; 72 hr): 45%
- Percent Protection LDH (human blood cells; 72 hr): 27%
- peroxidation (malondialdehyde formation) [9]: inhibit

From patent publication US6423855B1, “Cytoprotective compounds” (Virginia Commonwealth University, priority 1996, dated 2002)
